The text below walks through data of US11746100B2 (GLOBAL BLOOD THERAPEUTICS, INC., priority 2020, dated 2023).

A word on the pEC50: it is the EC50 on a negative log10 scale, so that one unit is a factor of ten. High values mean a small EC50, low ones a large EC50.

For the experiment, the target named is T1, human ferroportin (Homo sapiens, UniProt Q9NP59).
T1 construct: luciferase reporter (read with the Nano-Glo Luciferase Assay System); expressed in transfected cells; host or cells: CHO cells, stably transfected, expression induced with doxycycline
T1 sequence (Q9NP59 1-571): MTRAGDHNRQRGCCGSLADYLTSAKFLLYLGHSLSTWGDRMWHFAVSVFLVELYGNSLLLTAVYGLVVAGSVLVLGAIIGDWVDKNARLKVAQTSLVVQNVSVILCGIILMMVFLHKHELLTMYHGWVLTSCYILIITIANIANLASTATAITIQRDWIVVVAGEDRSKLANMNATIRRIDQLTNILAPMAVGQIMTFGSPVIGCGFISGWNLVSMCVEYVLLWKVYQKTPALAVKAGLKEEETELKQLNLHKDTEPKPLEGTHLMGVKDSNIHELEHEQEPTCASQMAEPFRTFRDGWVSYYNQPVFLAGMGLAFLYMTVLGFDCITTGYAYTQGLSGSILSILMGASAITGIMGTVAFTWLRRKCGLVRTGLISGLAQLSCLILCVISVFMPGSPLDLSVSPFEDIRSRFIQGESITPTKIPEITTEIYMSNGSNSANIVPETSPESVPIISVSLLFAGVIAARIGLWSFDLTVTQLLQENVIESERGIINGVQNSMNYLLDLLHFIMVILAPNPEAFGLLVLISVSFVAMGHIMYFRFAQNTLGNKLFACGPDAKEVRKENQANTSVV
The experiment in a line: Biological in-vitro ferroportin internalization assay (luciferase reporter). In kind it is cell-based. The settings on record: average pEC50; stably-transfected CHO cell line expressing human ferroportin tagged to a luciferase reporter; 6 h incubation with test compound. A digest of the protocol: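 Stably transfected CHO cells expressing luciferase-tagged human ferroportin, plated 24 h with ferric ammonium citrate and induced with doxycycline for 24 h. Compounds incubated 6 h, then luciferase activity measured by Nano-Glo; average pEC50 reported.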
(In general: In a reporter assay the amount or activity of a reporter protein is the signal.)
Take `CN(C)c1ccnc(-c2nc3c(c(N(C)CC(=O)NC(C)(C)C)n2)CCC3)c1` [Compound 102, N-tert-butyl-2-({2-[4-(dimethylamino)pyridin-2-yl]-5H,6H,7H-cyclopenta[d]pyrimidin-4-yl}(methyl)amino)acetamide]: the pEC50 was determined as 7.1.

`Cc1cccnc1-c1nc2c(c(N(C)CC(=O)NC(C)(C)C)n1)CCC2` [Compound 103, N-tert-butyl-2-{methyl[2-(3-methylpyridin-2-yl)-5H,6H,7H-cyclopenta[d]pyrimidin-4-yl]amino}acetamide] gave a pEC50 of 6.4.

For `Cc1ccc(-c2nc3c(c(N(C)CC(=O)NC(C)(C)C)n2)CCC3)nc1` [Compound 104, N-tert-butyl-2-{methyl[2-(5-methylpyridin-2-yl)-5H,6H,7H-cyclopenta[d]pyrimidin-4-yl]amino}acetamide], the pEC50 is on record as 7.2.

Regarding `Cc1ccnc(-c2nc3c(c(N(C)CC(=O)NC4(C)CCCC4)n2)CCC3)c1` [Compound 105, 2-{methyl[2-(4-methylpyridin-2-yl)-5H,6H,7H-cyclopenta[d]pyrimidin-4-yl]amino}-N-(1-methylcyclopentyl)acetamide], the pEC50 was 7.7.

Turning to `CN(CC(=O)NC(C)(C)C)c1nc(-c2ncc(CCO)s2)nc2c1CCC2` [Compound 107, N-tert-butyl-2-({2-[5-(2-hydroxyethyl)-1,3-thiazol-2-yl]-5H,6H,7H-cyclopenta[d]pyrimidin-4-yl}(methyl)amino)acetamide], the pEC50 was 5.7.

The compound `C[C@H](C(=O)NC1CCCCC1)N(C)c1nc(-c2ccccn2)nc2c1CCC2` [Compound 108, (2R)—N-cyclohexyl-2-{methyl[2-(pyridin-2-yl)-5H,6H,7H-cyclopenta[d]pyrimidin-4-yl]amino}propanamide] came in with a pEC50 of 7.6.

Turning to `C[C@H](C(=O)NC1CC(F)(F)C1)N(C)c1nc(-c2ccccn2)nc2c1CCC2` [Compound 109, (2R)—N-(3,3-difluorocyclobutyl)-2-{methyl[2-(pyridin-2-yl)-5H,6H,7H-cyclopenta[d]pyrimidin-4-yl]amino}propanamide], the pEC50 came to 7.

As to `CN(CC(=O)NC(C)(C)C)c1nc(-c2cc3cn[nH]c3cn2)nc2c1CCC2` [Compound 110, N-tert-butyl-2-[methyl(2-{1H-pyrazolo[3,4-c]pyridin-5-yl}-5H,6H,7H-cyclopenta[d]pyrimidin-4-yl)amino]acetamide], the pEC50 was 7.9.

Take `CN(CC(=O)NC1(C(F)(F)F)CC1)c1nc(-c2cn(C)cn2)nc2c1CCC2` [Compound 111, 2-{methyl[2-(1-methyl-1H-imidazol-4-yl)-5H,6H,7H-cyclopenta[d]pyrimidin-4-yl]amino}-N-[1-(trifluoromethyl)cyclopropyl]acetamide]: the pEC50 is 7.2.

With `C[C@H](C(=O)NC(C)(C)C)N(C)c1nc(-c2cn(C)cn2)nc2c1CCC2` [Compound 112, (2R)—N-tert-butyl-2-{methyl[2-(1-methyl-1H-imidazol-4-yl)-5H,6H,7H-cyclopenta[d]pyrimidin-4-yl]amino}propanamide], the pEC50 is listed as 8.

The compound `CN(CC(=O)NC(C)(C)C)c1nc(-c2cc(CCO)ccn2)nc2c1CCC2` [Compound 113, N-tert-butyl-2-({2-[4-(2-hydroxyethyl)pyridin-2-yl]-5H,6H,7H-cyclopenta[d]pyrimidin-4-yl}(methyl)amino)acetamide] had a pEC50 of 7.7.

`CC(C)[C@H](C(=O)NC(C)(C)C)N(C)c1nc(-c2ccccn2)nc2c1CCC2` [Compound 114, (2R)—N-tert-butyl-3-methyl-2-{methyl[2-(pyridin-2-yl)-5H,6H,7H-cyclopenta[d]pyrimidin-4-yl]amino}butanamide] came in with a pEC50 of 7.6.

`CC(C)[C@@H](C(=O)NC(C)(C)C)N(C)c1nc(-c2ccccn2)nc2c1CCC2` [Compound 115, (2S)—N-tert-butyl-3-methyl-2-{methyl[2-(pyridin-2-yl)-5H,6H,7H-cyclopenta[d]pyrimidin-4-yl]amino}butanamide] yielded a pEC50 of 7.1.

`CSCC[C@H](C(=O)NC(C)(C)C)N(C)c1nc(-c2ccccn2)nc2c1CCC2` [Compound 116, (2R)—N-tert-butyl-2-{methyl[2-(pyridin-2-yl)-5H,6H,7H-cyclopenta[d]pyrimidin-4-yl]amino}-4-(methylsulfanyl)butanamide] came in with a pEC50 of 7.4.

For the compound `CSCC[C@@H](C(=O)NC(C)(C)C)N(C)c1nc(-c2ccccn2)nc2c1CCC2` [Compound 117], the pEC50 worked out at 6.9.

For the compound `C[C@H](C(=O)NC1CCCCC1)N(C)c1nc(-c2cn(C)cn2)nc2c1CCC2` [Compound 118, (2R)—N-cyclohexyl-2-{methyl[2-(1-methyl-1H-imidazol-4-yl)-5H,6H,7H-cyclopenta[d]pyrimidin-4-yl]amino}propanamide], the negative logarithm of the EC50 (pEC50) is recorded as 7.8.

`COc1ccnc(-c2nc3c(c(N(C)[C@H](C)C(=O)NC4CCCCC4)n2)CCC3)c1` [Compound 119, (2R)—N-cyclohexyl-2-{[2-(4-methoxypyridin-2-yl)-5H,6H,7H-cyclopenta[d]pyrimidin-4-yl](methyl)amino}propanamide] came in with a pEC50 of 7.7.

Compound `CN(c1nc(-c2ccccn2)nc2c1CCC2)[C@@H](COC(C)(C)C)C(=O)NC(C)(C)C` [Compound 120, (2S)-3-(tert-butoxy)-N-tert-butyl-2-{methyl[2-(pyridin-2-yl)-5H,6H,7H-cyclopenta[d]pyrimidin-4-yl]amino}propanamide] gave a pEC50 of 7.2.

For `CN(c1nc(-c2ccccn2)nc2c1CCC2)[C@H](COC(C)(C)C)C(=O)NC(C)(C)C` [Compound 121, (2R)-3-(tert-butoxy)-N-tert-butyl-2-{methyl[2-(pyridin-2-yl)-5H,6H,7H-cyclopenta[d]pyrimidin-4-yl]amino}propanamide], the pEC50 amounted to 7.9.

For `CN(CC(=O)NC(C)(C)C)c1nc(-c2cc3c(cn2)OCCO3)nc2c1CCC2` [Compound 122, N-tert-butyl-2-[(2-{2H,3H-[1,4]dioxino[2,3-c]pyridin-7-yl}-5H,6H,7H-cyclopenta[d]pyrimidin-4-yl)(methyl)amino]acetamide], the pEC50 was 7.8.

With `CN(c1nc(-c2ccccn2)nc2c1CCC2)[C@@H](CO)C(=O)NC(C)(C)C` [Compound 123, (2S)—N-tert-butyl-3-hydroxy-2-{methyl[2-(pyridin-2-yl)-5H,6H,7H-cyclopenta[d]pyrimidin-4-yl]amino}propanamide], the pEC50 is on record as 7.2.

Consider `CN(c1nc(-c2ccccn2)nc2c1CCC2)[C@H](CO)C(=O)NC(C)(C)C` [Compound 124, (2R)—N-tert-butyl-3-hydroxy-2-{methyl[2-(pyridin-2-yl)-5H,6H,7H-cyclopenta[d]pyrimidin-4-yl]amino}propanamide], for which the pEC50 was determined as 7.

In the case of `CN(CC(=O)NC(C)(C)C)c1nc(-c2cn(C)cn2)nc2c1CCC2` [Compound 125, N-tert-butyl-2-{methyl[2-(1-methyl-1H-imidazol-4-yl)-5H,6H,7H-cyclopenta[d]pyrimidin-4-yl]amino}acetamide], the pEC50 is 7.5.

For the compound `CCN(CC(=O)NC(C)(C)C)c1nc(-c2cc(OC)ccn2)nc2c1CCC2` [Compound 126, N-tert-butyl-2-{ethyl[2-(4-methoxypyridin-2-yl)-5H,6H,7H-cyclopenta[d]pyrimidin-4-yl]amino}acetamide], the pEC50 stood at 7.9.

The compound `CN(CC(=O)Nc1ccc(F)nc1)c1nc(-c2ccccn2)nc2c1CCC2` [Compound 127, N-(6-fluoropyridin-3-yl)-2-{methyl[2-(pyridin-2-yl)-5H,6H,7H-cyclopenta[d]pyrimidin-4-yl]amino}acetamide] came in with a pEC50 of 7.1.

Compound `COc1ccnc(-c2nc3c(c(N(C)CC(=O)Nc4ccc(F)nc4)n2)CCC3)c1` [Compound 128, N-(6-fluoropyridin-3-yl)-2-{[2-(4-methoxypyridin-2-yl)-5H,6H,7H-cyclopenta[d]pyrimidin-4-yl](methyl)amino}acetamide] gave a pEC50 of 7.4.

As for `CN(CC(=O)Nc1ccc(F)nc1)c1nc(-c2cn(C)cn2)nc2c1CCC2` [Compound 129, N-(6-fluoropyridin-3-yl)-2-{methyl[2-(1-methyl-1H-imidazol-4-yl)-5H,6H,7H-cyclopenta[d]pyrimidin-4-yl]amino}acetamide], the negative logarithm of the EC50 (pEC50) is on record as 7.2.

As for `CN(c1nc(-c2ccccn2)nc2c1CCC2)[C@@H]1CCN(c2ccccc2)C1=O` [Compound 130, (3R)-3-{methyl[2-(pyridin-2-yl)-5H,6H,7H-cyclopenta[d]pyrimidin-4-yl]amino}-1-phenylpyrrolidin-2-one], the pEC50 is 6.9.

For the compound `CN(c1nc(-c2ccccn2)nc2c1CCC2)[C@H]1CCN(c2ccccc2)C1=O` [Compound 131, (3S)-3-{methyl[2-(pyridin-2-yl)-5H,6H,7H-cyclopenta[d]pyrimidin-4-yl]amino}-1-phenylpyrrolidin-2-one], the pEC50 is given as 7.1.

As for `COc1ccnc(-c2nc3c(c(N(C)[C@@H]4CCN(c5ccccc5)C4=O)n2)CCC3)c1` [Compound 132, (3R)-3-{[2-(4-methoxypyridin-2-yl)-5H,6H,7H-cyclopenta[d]pyrimidin-4-yl](methyl)amino}-1-phenylpyrrolidin-2-one], the negative-log EC50 (pEC50) is 7.3.
